SMILES strings stand for the structures.

The record followed here is patent publication US9446091B2, “Caspofungin or salts thereof with high purity, as well as preparation method and use thereof” (Shanghai Techwell Biopharmaceutical Co., Ltd., priority 2011, dated 2016).

This data set in a line: Study on the stability of caspofungin with low solvent residue and hyposaline (storage, then HPLC purity). The format is physicochemical. Particulars: for Purity: HPLC purity after storing at −25~−20° C. for 30 days; for Initial purity: HPLC purity before storage; for stability of the samples (degradation by HPLC analysis): stored at −25-20° C. for 30 days. On the procedure: In the present invention, HPLC is used to determine the purity of caspofungin or salts thereof (the compound of formula 1 or salts thereof), and to investigate the stability of sample. Said HPLC is described as follows:
Chromatographic column: 4.6×250 mm, 5 μm C18 column;
Mobile phase: A: 0.1% aqueous perchloric acid and 0.075% aqueous sodium chloride; B: acetonitrile;
Flow rate: 1.0 ml/min; Injection volume: 10 μL;
Column temperature: 35° C.±5° C.; Detection wavelength: 220 nm; Running time: 60 mins;
Retention time of major peak: about 27 min;
The samples prepared in the above example 3, example 4, example 5, example 6, example 7, example 8 and example 9 were stored at −25-20° C. for 30 days. And then HPLC analysis was applied on these samples.

With `CCC(C)CC(C)CCCCCCCCC(=O)N[C@H]1C[C@@H](O)[C@@H](NCCN)NC(=O)[C@@H]2[C@@H](O)CCN2C(=O)[C@H]([C@H](O)CCN)NC(=O)[C@H]([C@H](O)[C@@H](O)c2ccc(O)cc2)NC(=O)[C@@H]2C[C@@H](O)CN2C(=O)[C@H]([C@@H](C)O)NC1=O` (single isomer, unassigned) [Example 3, caspofungin diacetate], the Purity came to 99.90%, the Initial purity was 99.90% and the “stability of the samples (degradation by HPLC analysis)” value (“stability of the samples” below) is “no degradation occured”.

For `CCC(C)CC(C)CCCCCCCCC(=O)N[C@H]1C[C@@H](O)[C@@H](NCCN)NC(=O)[C@@H]2[C@@H](O)CCN2C(=O)[C@H]([C@H](O)CCN)NC(=O)[C@H]([C@H](O)[C@@H](O)c2ccc(O)cc2)NC(=O)[C@@H]2C[C@@H](O)CN2C(=O)[C@H]([C@@H](C)O)NC1=O` (single isomer, unassigned) [Example 9, caspofungin diacetate], the Purity came to 99.86%, the Initial purity worked out at 99.86% and the “stability of the samples” value is recorded as “no degradation occured”.

For the compound `CCC(C)CC(C)CCCCCCCCC(=O)N[C@H]1C[C@@H](O)[C@@H](NCCN)NC(=O)[C@@H]2[C@@H](O)CCN2C(=O)[C@H]([C@H](O)CCN)NC(=O)[C@H]([C@H](O)[C@@H](O)c2ccc(O)cc2)NC(=O)[C@@H]2C[C@@H](O)CN2C(=O)[C@H]([C@@H](C)O)NC1=O` (single isomer, unassigned) [Example 8, caspofungin diacetate], the Purity is listed as 99.88%, the Initial purity was 99.88% and the “stability of the samples” value is given as “no degradation occured”.

Regarding `CCC(C)CC(C)CCCCCCCCC(=O)N[C@H]1C[C@@H](O)[C@@H](NCCN)NC(=O)[C@@H]2[C@@H](O)CCN2C(=O)[C@H]([C@H](O)CCN)NC(=O)[C@H]([C@H](O)[C@@H](O)c2ccc(O)cc2)NC(=O)[C@@H]2C[C@@H](O)CN2C(=O)[C@H]([C@@H](C)O)NC1=O` (single isomer, unassigned) [Example 4, caspofungin diacetate], the Purity is 99.90%, the Initial purity stood at 99.90% and the “stability of the samples” value is recorded as “no degradation occured”.

Consider `CCC(C)CC(C)CCCCCCCCC(=O)N[C@H]1C[C@@H](O)[C@@H](NCCN)NC(=O)[C@@H]2[C@@H](O)CCN2C(=O)[C@H]([C@H](O)CCN)NC(=O)[C@H]([C@H](O)[C@@H](O)c2ccc(O)cc2)NC(=O)[C@@H]2C[C@@H](O)CN2C(=O)[C@H]([C@@H](C)O)NC1=O` (single isomer, unassigned) [Example 5, caspofungin diacetate], for which the Purity is 99.91%, the Initial purity amounted to 99.91% and the “stability of the samples” value was “no degradation occured”.

As for `CCC(C)CC(C)CCCCCCCCC(=O)N[C@H]1C[C@@H](O)[C@@H](NCCN)NC(=O)[C@@H]2[C@@H](O)CCN2C(=O)[C@H]([C@H](O)CCN)NC(=O)[C@H]([C@H](O)[C@@H](O)c2ccc(O)cc2)NC(=O)[C@@H]2C[C@@H](O)CN2C(=O)[C@H]([C@@H](C)O)NC1=O` (single isomer, unassigned) [Example 6, caspofungin diacetate], the Purity was 99.92%, the Initial purity worked out at 99.92% and the “stability of the samples” value was “no degradation occured”.

In the case of `CCC(C)CC(C)CCCCCCCCC(=O)N[C@H]1C[C@@H](O)[C@@H](NCCN)NC(=O)[C@@H]2[C@@H](O)CCN2C(=O)[C@H]([C@H](O)CCN)NC(=O)[C@H]([C@H](O)[C@@H](O)c2ccc(O)cc2)NC(=O)[C@@H]2C[C@@H](O)CN2C(=O)[C@H]([C@@H](C)O)NC1=O` (single isomer, unassigned) [Example 7, caspofungin diacetate], the Purity was determined as 99.90%, the Initial purity is reported as 99.90% and the “stability of the samples” value is recorded as “no degradation occured”.
